Data reported in patent publication US9617263B2, “Phenyl-triazolo-pyridine compounds” (Eli Lilly and Company, priority 2014, dated 2017).

Test system: Zucker fa/fa rats
Test: Acute oral glucose tolerance test (OGTT)
Format: in vivo, rat
Details: oral; Example 1 at 1, 3 and 10 mg/kg, TAK875 at 1 mg/kg; p<0.05
Protocol: OGTTs are performed in Zucker fa/fa rats, a rodent model of insulin resistance, after 1 and 21 days of orally administered material at 1.0, 3.0 and 10 mg/kg. TAK875 at 1 mg/kg served as the positive control. The OGTTs are performed one hour post compound administration with blood samples taken for determination of glucose and insulin levels at 10, 20, 40, 60, and 120 minutes post glucose administration.

Compound	AUCs for glucose lowering
Cc1cc(OCCCS(C)(=O)=O)cc(C)c1-c1cccc(COc2ccc3c(c2)OC[C@H]3CC(=O)O)c1 [TAK875, fasiglifam, reference compound]	statistically significant

Test system: Male Balb/c mice
Test: Intraperitoneal glucose tolerance test (IPGTT)
Format: in vivo, mouse
Details: 30 and 60 minute time points; Example 1 at 10, 30, 100 mg/kg oral; positive control 10 mg/kg
Protocol: To examine the ability of Examples 1 to 20 to activate GPR40 in-vivo resulting in desired glucose lowering efficacy, i.e. reduction in plasma glucose levels, an intraperitoneal glucose tolerance test (ipGTT) study is completed, and the data is shown for the compound tested below.
Male Balb/c (Albino mice) mice (8-9 weeks of age) are single housed, and fed with normal rodent chow diet and water ad libitum. Animals are weighed; randomized by body weight; and their daily body weights are recorded. Animals are dosed daily using a formulation carrying methylcellulose and tween-80. On the night before the study, animals are fasted. In the morning, animals are dosed orally with compound or vehicle alone 60 minutes prior to the glucose tolerance test (glucose 2 g/kg, i.p.). Blood glucose levels are determined from tail bleeds taken at 0, 3, 7, 15, 30, and 60 min after glucose challenge. […] Percent lowering in glucose is calculated from the AUC data of the compound with respect to the AUC of vehicle group. The test compound is orally administered at 0.3, 1.0, 3.0, 10, 30, or 100 mg/kg, and a positive control (3-[4-(2-methyl-benzyloxy)-phenyl]-hex-4-ynoic acid, see WO2005086661 (TAK875).) is administered at 10 mg/kg. […] Glucose levels are lowered at the 30, and 60 minute time points for the positive control.

Compound	Glucose levels compared to vehicle control
Cc1cc(OCCCS(C)(=O)=O)cc(C)c1-c1cccc(COc2ccc3c(c2)OC[C@H]3CC(=O)O)c1 [TAK875, fasiglifam, reference compound]	lowered

Target: hGPR40 (Homo sapiens, UniProt O14842)
Sequence (O14842 whole entry): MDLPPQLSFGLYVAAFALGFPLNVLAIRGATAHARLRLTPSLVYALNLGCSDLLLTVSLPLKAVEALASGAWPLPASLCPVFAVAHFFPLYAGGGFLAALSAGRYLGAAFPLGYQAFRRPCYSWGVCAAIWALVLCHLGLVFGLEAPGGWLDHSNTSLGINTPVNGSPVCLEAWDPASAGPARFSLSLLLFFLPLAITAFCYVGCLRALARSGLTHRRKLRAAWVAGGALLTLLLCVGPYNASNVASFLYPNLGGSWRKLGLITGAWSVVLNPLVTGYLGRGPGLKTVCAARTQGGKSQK
Test: Calcium Flux Primary Assay (FLIPR, Calcium 4 Dye)
Format: cell-based
Set-up: expressed in transfected cells; host or cells: HEK293
Details: HEK293, HEK293 cells over expressing human GPR40; vs natural ligand linoleic acid; read-out: efficacy (maximal response compared to linoleic acid)
Protocol: HEK293 cells over expressing the human GPR40 cDNA maintained in Dulbecco's modified Eagle's medium with F12 medium in 3:1 ratio supplemented with 10% FBS and 800 μg/ml geneticin at 37° C. and 5% CO2 are employed for the study. Agonist assays are performed using a Calcium 4 Dye assay kit (Molecular Devices) in the presence or absence of 0.1% fatty acid free BSA in the assay buffer (1×HBSS (Hank's Balanced Salt Solution) & 20 mM HEPES (4-(2-hydroxyethyl)-1-piperazineethanesulfonic acid). Receptor activation is measured as an increase in intracellular calcium using the Fluorometric Imaging Plate Reader (FLIPR). Maximum change in fluorescence over the base line is used to determine the agonist response. The EC50 value of the compound is calculated using Excel Fit software (version 4; IDBS) by plotting concentration vs relative fluorescence units (RFUs).

Emax	Compound
> 35%	CC#C[C@@H](CC(=O)O)c1ccc(OCc2cc(-c3ccc(OC)cc3)cn3ncnc23)cc1 [Example 2, (S)-3-{4-[6-(4-Methoxy-phenyl)-[1,2,4]triazolo[1,5-a]pyridin-8-ylmethoxy]-phenyl}-hex-4-ynoic acid]
> 35%	CC#C[C@@H](CC(=O)O)c1ccc(OCc2cc(-c3c(C)cccc3F)cn3ncnc23)cc1 [Example 3, (S)-3-{4-[6-(2-Fluoro-6-methyl-phenyl)-[1,2,4]triazolo[1,5-a]pyridin-8-ylmethoxy]-phenyl}-hex-4-ynoic acid]
> 35%	CC#C[C@@H](CC(=O)O)c1ccc(OCc2cc(-c3ccc(OC)cc3C)cn3ncnc23)cc1 [Example 4, (S)-3-{4-[6-(4-Methoxy-2-methyl-phenyl)-[1,2,4]triazolo[1,5-a]pyridin-8-ylmethoxy]-phenyl}-hex-4-ynoic acid]
> 35%	CC#C[C@@H](CC(=O)O)c1ccc(OCc2cc(-c3c(C)cc(OC)cc3C)cn3ncnc23)cc1 [Example 5, (S)-3-{4-[6-(4-Methoxy-2,6-dimethyl-phenyl)-[1,2,4]triazolo[1,5-a]pyridin-8-ylmethoxy]-phenyl}-hex-4-ynoic acid]
> 35%	CC#C[C@@H](CC(=O)O)c1ccc(OCc2cc(-c3cc(OC)ccc3F)cn3ncnc23)cc1 [Example 6]
> 35%	CC#C[C@@H](CC(=O)O)c1ccc(OCc2cc(-c3ccc(OCCCS(C)(=O)=O)cc3C)cn3ncnc23)cc1 [Example 7, (S)-3-(4-{6-[4-(3-Methanesulfonyl-propoxy)-2-methyl-phenyl]-[1,2,4]triazolo[1,5-a]pyridin-8-ylmethoxy}-phenyl)-hex-4-ynoic acid]
> 35%	CC#C[C@@H](CC(=O)O)c1ccc(OCc2cc(-c3ccc(C(C)C)cc3)cn3ncnc23)cc1 [Example 9, (S)-3-{4-[6-(4-Isopropyl-phenyl)-[1,2,4]triazolo[1,5-a]pyridin-8-ylmethoxy]-phenyl}-hex-4-ynoic acid]
> 35%	CC#C[C@@H](CC(=O)O)c1ccc(OCc2cc(-c3c(C)cccc3C)cn3ncnc23)cc1 [Example 11, (S)-3-{4-[6-(2,6-Dimethyl-phenyl)-[1,2,4]triazolo[1,5-a]pyridin-8-ylmethoxy]-phenyl}-hex-4-ynoic acid]
> 35%	CC#C[C@@H](CC(=O)O)c1ccc(OCc2cc(-c3cc(Cl)ccc3C)cn3ncnc23)cc1 [Example 12]
> 35%	CC#C[C@@H](CC(=O)O)c1ccc(OCc2cc(-c3ccc(C#N)cc3)cn3ncnc23)cc1 [Example 13, (S)-3-{4-[6-(4-Cyano-phenyl)-[1,2,4]triazolo[1,5-a]pyridin-8-ylmethoxy]-phenyl}-hex-4-ynoic acid]
> 35%	CC#C[C@@H](CC(=O)O)c1ccc(OCc2cc(-c3ccc(C(F)F)cc3)cn3ncnc23)cc1 [Example 15, (S)-3-{4-[6-(4-Difluoromethyl-phenyl)-[1,2,4]triazolo[1,5-a]pyridin-8-ylmethoxy]-phenyl}-hex-4-ynoic acid]
> 35%	CC#C[C@@H](CC(=O)O)c1ccc(OCc2cc(-c3ccc(OCC#N)cc3C)cn3ncnc23)cc1 [Example 16, (S)-3-{4-[6-(4-Cyanomethoxy-2-methyl-phenyl)-[1,2,4]triazolo[1,5-a]pyridin-8-ylmethoxy]-phenyl}-hex-4-ynoic acid]
> 35%	CC#C[C@@H](CC(=O)O)c1ccc(OCc2cc(-c3ccc(S(C)(=O)=O)cc3)cn3ncnc23)cc1 [Example 17]
> 35%	CC#C[C@@H](CC(=O)O)c1ccc(OCc2cc(-c3ccc(S(N)(=O)=O)cc3C)cn3ncnc23)cc1 [Example 18, (S)-3-{4-[6-(2-Methyl-4-sulfamoyl-phenyl)-[1,2,4]triazolo[1,5-a]pyridin-8-ylmethoxy]-phenyl}-hex-4-ynoic acid]
> 35%	CC#C[C@@H](CC(=O)O)c1ccc(OCc2cc(-c3ccc(C(C)(C)C#N)cc3)cn3ncnc23)cc1 [Example 19, (S)-3-(4-{6-[4-(Cyano-dimethyl-methyl)-phenyl]-[1,2,4]triazolo[1,5-a]pyridin-8-ylmethoxy}-phenyl)-hex-4-ynoic acid]
> 35%	CC#C[C@@H](CC(=O)O)c1ccc(OCc2cc(-c3ccc(OC(F)F)cc3C)cn3ncnc23)cc1 [Example 20, (S)-3-{4-[6-(4-Difluoromethoxy-2-methyl-phenyl)-[1,2,4]triazolo[1,5-a]pyridin-8-ylmethoxy]-phenyl}-hex-4-ynoic acid]

Compound	Emax
CC#C[C@@H](CC(=O)O)c1ccc(OCc2cc(-c3ccc(OCCC(C)(C)O)cc3C)cn3ncnc23)cc1 [Example 8, (S)-3-(4-{6-[4-(3-Hydroxy-3-methyl-butoxy)-2-methyl-phenyl]-[1,2,4]triazolo[1,5-a]pyridin-8-ylmethoxy}-phenyl)-hex-4-ynoic acid]	> 35%
